Results taken from the supplement of paper PMC4862054.

Tests used:
Assay in all cases: normalised viability (% of control), CellTiter-Blue; higher = more viable cells (about 100 = DMSO control)
Details in all cases: incubation time: 72 h
[1] = tested on: MDA-MB-453
Outline: (§1)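 Breast cancer cell lines were treated for 72 h in 384-well format and measured by CellTiter-Blue fluorescence at 560/590 nm. Results were normalised per plate to vehicle (100) and a positive kill control (0). The entry is normalised viability at a single listed concentration of the series.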

[2] = tested on: CAL-148
Outline: as §1

[3] = tested on: MDA-MB-468
Outline: as §1

[4] = tested on: DU-4475
Outline: as §1

[5] = tested on: BT-549
Outline: as §1

[6] = tested on: Hs578T
Outline: as §1

[7] = tested on: MDA-MB-231
Outline: as §1

[8] = tested on: CAL-51
Outline: as §1

[9] = tested on: CAL-85-1
Outline: as §1

[10] = tested on: HCC1937
Outline: as §1

[11] = tested on: MDA-MB-436
Outline: as §1

[12] = tested on: HCC1599
Outline: as §1

[13] = tested on: BT-474
Outline: as §1

[14] = tested on: HDQ-P1
Outline: as §1

[15] = tested on: HCC1143
Outline: as §1

[16] = tested on: MFM-223
Outline: as §1

Nc1nc2[nH]cnc2c(=S)[nH]1 [Thioguanine]
normalised viability [%]
Details	3 nM	10 nM	30 nM	100 nM	1000 nM	10000 nM
[1]	132	–	102	98.6	–	–
[2]	105	–	116	102	–	–
[3]	–	104	–	–	62.1	44.4
[4]	120	–	112	116	–	–
[5]	–	94	–	–	106	49
[6]	–	137	–	–	96.4	32.9
[7]	–	92.7	–	–	58.4	56
[8]	114	–	109	109	–	–
[9]	111	–	97.4	104	–	–
[10]	–	76.3	–	–	86.1	40.4
[11]	–	104	–	–	74.5	65.6
[12]	–	111	–	–	77	103
[13]	–	112	–	–	113	102
[14]	117	–	127	101	–	–
[15]	–	92.6	–	–	103	82.9
[16]	–	89.4	–	–	88.6	82.2

C[C@]12CC[C@@H]3c4ccc(OC(=O)N(CCCl)CCCl)cc4CC[C@H]3[C@@H]1CC[C@@H]2O [Estramustine]
normalised viability [%]
Details	0.297 nM	0.99 nM	2.97 nM	9.9 nM	99 nM	990 nM
[1]	89.2	–	102	101	–	–
[2]	118	–	101	106	–	–
[3]	–	102	–	–	103	117
[4]	93.6	–	99.3	108	–	–
[5]	–	82.7	–	–	89.6	87.2
[6]	–	113	–	–	100	98
[7]	–	100	–	–	109	119
[8]	88.7	–	86.3	86.7	–	–
[9]	100	–	90.9	101	–	–
[10]	–	88.9	–	–	75	92.2
[11]	–	95	–	–	96.1	99.4
[12]	–	89	–	–	76.9	98.3
[13]	–	116	–	–	115	116
[14]	107	–	106	109	–	–
[15]	–	109	–	–	106	114
[16]	–	101	–	–	98.3	103

Cn1cnc2c(F)c(Nc3ccc(Br)cc3Cl)c(C(=O)NOCCO)cc21 [Selumetinib]
normalised viability [%]
Details	3 nM	10 nM	30 nM	100 nM	1000 nM	10000 nM
[1]	122	–	105	110	–	–
[2]	91	–	87.9	88.9	–	–
[3]	–	106	–	–	95	69.5
[4]	95.1	–	72.5	43.7	–	–
[5]	–	109	–	–	101	95.3
[6]	–	90.8	–	–	89.8	76.2
[7]	–	90.3	–	–	49.5	30
[8]	116	–	102	96.3	–	–
[9]	88.1	–	93.6	100	–	–
[10]	–	65.3	–	–	83.8	68.6
[11]	–	113	–	–	59.8	101
[12]	–	112	–	–	78.3	76.3
[13]	–	104	–	–	105	104
[14]	92.4	–	107	92.6	–	–
[15]	–	79.7	–	–	58.2	49.7
[16]	–	86.2	–	–	89.7	73.1
